Assays:
[1] = biological target: T1, flTau aggregates (longest isoform of human Tau, 2N4R; 441 amino acids) (Homo sapiens, UniProt P10636); assay: Full-length Tau (flTau) disaggregation assay by Thioflavin T (ThT); format: biochemical; settings: 2 μM flTau aggregates, 160 to 0.04 μM compound, 30 minutes RT, ThT fluorescence
T1 construct: 35 μM of recombinant full-length (fl)Tau in PBS were aggregated for 24 hours; made in house; host or cells: bacteria
Method: Biological Assay Description Full-Length Tau (flTau) Disaggregation Assay by Thioflavin T (ThT)
The longest isoform of human Tau (2N4R; 441 amino acids) was expressed in bacteria and purified. For the Tau disaggregation assay by ThT, 35 μM of recombinant full-length (fl)Tau in PBS were aggregated for 24 hours at 37° C. in presence of 50 μM of heparin (Sigma-Aldrich) and 10 mM of DTT (Sigma-Aldrich) under shaking at 750 RPM. Compounds were dissolved in anhydrous dimethyl sulfoxide (DMSO, Sigma-Aldrich) to reach a concentration of 10 mM.
(§1) flTau aggregates and serial dilutions of compounds were mixed together in PBS (volume 50 μL) to a final concentration of 2 μM of flTau aggregates and from 160 to 0.04 μM of compounds. The mixture was incubated for 30 minutes at room temperature (RT), then 40 μL of this mixture were transferred into a black 384-well plate assay (Perkin-Elmer) and mixed with 10 μL of 100 μM ThT in 250 mM glycine (both from Sigma-Aldrich) in PBS. Fluorescence (relative fluorescence units; RFU) was measured in monoplicate or duplicate on a Tecan reader (excitation: 440 nm; emission: 485 nm). Percentage of flTau disaggregation was then calculated and the halfmaximal effective concentration (EC50) was determined using GraphPad Prism version 5 (GraphPad Software) assuming a one-binding site fitting model.

[2] = biological target: T2, K18 aggregates (Tau K18 fragment, amino acids 244 to 372 of human Tau441) (Homo sapiens, UniProt P10636); assay: Tau K18 disaggregation assay by ThT; format: biochemical; settings: 2 μM K18 aggregates, 160 to 0.04 μM compound, 30 minutes RT, ThT fluorescence; read-out: TauK18 disaggregation EC50
T2 construct: encompassing amino acids 244 to 372 of the longest isoform (2N4R) of human Tau441; host or cells: bacteria
Method: Tau K18 Disaggregation Assay by ThT
as §1, with “The Tau K18 fragment, encompassing amino acids 244 to 372 of the longest isoform (2N4R) of human Tau441, was expressed in bacteria and purified or bought from SignalChem. For the K18 disaggregation assay by ThT, 35 μM of recombinant K18 in PBS were aggregated for 24 hours at 37° C. in presence of 50 μM of heparin (Sigma-Aldrich) and 10 mM of DTT (Sigma-Aldrich) under shaking at 750 RPM. Compounds were dissolved in anhydrous dimethyl sulfoxide (DMSO, Sigma-Aldrich) to reach a concentration of 10 mM. K18 aggregates” for “flTau aggregates”, “of K18” for “of flTau”, “and half maximal” for “and the halfmaximal”

[3] = test system: human neuroblastoma cell line overexpressing the full-length form of human Tau carrying the P301L mutation; assay: Reduction of intracellular Tau aggregation (AlphaLISA); format: cell-based; settings: compound at 5 μM, 24 h; aggregated Tau normalized to total Tau, relative to DMSO-treated cells
Method: Reduction of Intracellular Tau Aggregation
A human neuroblastoma cell line overexpressing the full-length form of human Tau carrying the P301L mutation was cultured in complete medium [DMEM-F12 4.5 g/L Glutamax (Invitrogen), 15% FBS (Biochrom), 1% Peni/Strep (Invitrogen) supplemented with 2.5 μg/ml of G418 (Sigma-Aldrich) selection antibiotic]. The day before the experiment 5×10^5 cells/well were plated in a 6 well plate in 3 mL of complete medium. The next day, cells were incubated with DMSO or a compound of the present invention at a 5 μM for additional 24 h at 37° C. After incubation, cells were trypsinized, resupsended in 100 μl of homogenization buffer [25 mM Tris-HCl pH 7.4, 150 mM NaCl, 1 mM EDTA, 1 mM EGTA containing phosphatase inhibitors (30 mM NaF, 0.2 mM Na3VO4, 1 nM Okadaic acid, 1 mM PMSF, 5 mM Na4P2O7) and protease inhibitor cocktail (Complete™, Roche)], and then physically lysed with three rapid cycles of freezing and thawing. Samples were then directly tested in the AlphaLISA assay.
Phosphorylated, aggregated, and total Tau were quantified by AlphaLisa using the following antibody pairs: • HT7-Acceptor beads+biotin (BT)-Tau13-Donor beads: Total Tau • HT7-Acceptor beads+biotin (BT)-HT7-Donor beads: Aggregated human Tau
The Tau13 (Abcam) was biotinylated using EZ-Link® NHS-PEO Solid Phase biotinylation kit (Thermo Scientific), while the HT7-biotin was from a commercial source (Thermo Scientific).
For each antibody pairs the concentration of acceptor beads and biotinylated antibodies was optimized. All samples were first tested in a dilution series in PBS in order to identify the linear range and optimal dilution for each sample and assay. For the final protocol, the following reagents were added in a 384-well white OptiPlate (Perkin Elmer): • 5 μL of test diluted sample • 20 μL of the mixture biotin-mAb acceptor beads at the following final concentrations: • HT7-BT at 1.25 nM in combination with HT7-Acc beads at 10 μg/ml • Tau13-BT at 5 nM in combination with HT7-Acc beads at 2.5 μg/ml
After incubation of this mixture at room temperature for 1 h, 25 μL of Streptavidin Donor beads (Perkin Elmer) at 25 μg/mL were added in the dark. Plates were analyzed after 30 min incubation using the EnSpire Alpha instrument and EnSpire Workstation version 3.00.
Data for aggregated Tau were normalized to total Tau and then expressed as percentage of the DMSO-treated cells.

T1 sequence (P10636 1-441 isoform P10636-8): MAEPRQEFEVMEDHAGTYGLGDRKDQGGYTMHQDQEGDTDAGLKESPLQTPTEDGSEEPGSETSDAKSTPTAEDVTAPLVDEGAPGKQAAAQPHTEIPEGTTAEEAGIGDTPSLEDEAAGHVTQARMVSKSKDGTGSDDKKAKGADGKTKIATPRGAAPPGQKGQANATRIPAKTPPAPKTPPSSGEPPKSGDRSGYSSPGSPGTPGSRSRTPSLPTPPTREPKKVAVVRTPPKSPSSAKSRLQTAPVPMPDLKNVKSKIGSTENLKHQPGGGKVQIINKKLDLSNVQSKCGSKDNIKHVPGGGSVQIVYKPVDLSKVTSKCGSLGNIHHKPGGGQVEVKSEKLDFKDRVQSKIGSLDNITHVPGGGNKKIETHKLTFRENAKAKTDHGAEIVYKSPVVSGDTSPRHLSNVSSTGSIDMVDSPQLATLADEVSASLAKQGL
T2 sequence (P10636 561-689): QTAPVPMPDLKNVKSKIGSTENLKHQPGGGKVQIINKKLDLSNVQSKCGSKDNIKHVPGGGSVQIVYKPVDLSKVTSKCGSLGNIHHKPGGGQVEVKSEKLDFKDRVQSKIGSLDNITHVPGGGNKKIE

Structure (SMILES) | EC50 [1] | EC50 [2] | % Reduction of intracellular Tau aggregation [3]
CN(C)C1CCc2c(c3ccc(Nc4ccc5sc(N6CCC(F)CC6)nc5c4)nc3n2C)C1 (stereo not drawn) [Example 3] | < 10 µM | < 10 µM | ++ (++ %50 < x < 25)
CN(C)C1CCc2oc3nc(Nc4ccc5sc(N6CCOCC6)nc5c4)ccc3c2C1 (stereo not drawn) [Example 5] |  | < 10 µM | 
CC(C)N1CCc2c(c3ccc(Nc4ccc5sc(N6CCC(F)CC6)nc5c4)nc3n2C)C1 [Example 6] | < 10 µM | < 10 µM | 
CC(C)N1CCc2oc3nc(Nc4ccc5nc(N6CCOCC6)sc5c4)ccc3c2C1 [Example 7] |  | < 10 µM | 
CC(C)N1CCc2oc3nc(Nc4ccc5sc(N6CCOCC6)nc5c4)ccc3c2C1 [Example 8] |  | 25 to 50 µM | 
CN(C)C1CCc2c(c3ccc(Nc4ccc5sc(N6CCOCC6)nc5c4)nc3n2C)C1 (stereo not drawn) [Example 9] |  | < 10 µM | 
CN(C)C1CCc2c(c3ccc(Nc4ccc5nc(N6CCOCC6)sc5c4)nc3n2C)C1 (stereo not drawn) [Example 10] | < 10 µM | < 10 µM | 
CN(C)[C@H]1CCc2c(c3ccc(Nc4ccc5sc(N6CCOCC6)nc5c4)nc3n2C)C1 [Example 11] | < 10 µM | < 10 µM | 
CN(C)[C@H]1CCc2c(c3ccc(Nc4ccc5nc(N6CCOCC6)sc5c4)nc3n2C)C1 [Example 13] | < 10 µM | < 10 µM | 
CN(C)C1CCc2c(c3ccc(Nc4ccc5nc(N6CCC(F)CC6)sc5c4)nc3n2C)C1 (stereo not drawn) [Example 14] | 10 to 25 µM | 10 to 25 µM | 
CN(C)C1CCc2c(c3ccc(Nc4ccc5sc(N6CCC[C@H](F)C6)nc5c4)nc3n2C)C1 (stereo partly drawn) [Example 15] | < 10 µM | < 10 µM | 
CN(C)C1CCc2c(c3ccc(Nc4ccc5sc(N6CCC[C@@H](F)C6)nc5c4)nc3n2C)C1 (stereo partly drawn) [Example 16] | < 10 µM | < 10 µM | 
CN(C)[C@@H]1CCc2c(c3ccc(Nc4ccc5nc(N6CCOCC6)oc5c4)nc3n2C)C1 [Example 17] | 25 to 50 µM |  | 
CN(C)[C@@H]1CCc2c(c3ccc(Nc4ccc5oc(N6CCOCC6)nc5c4)nc3n2C)C1 [Example 18] | 25 to 50 µM | 10 to 25 µM | 
CN(C)[C@@H]1CCc2c(c3ccc(Nc4ccc5nc(N6CCC[C@@H](F)C6)oc5c4)nc3n2C)C1 [Example 19] | 10 to 25 µM | 10 to 25 µM | 
CN(C)C1CCc2oc3nc(Nc4ccc5nc(N6CCOCC6)sc5c4)ccc3c2C1 (stereo not drawn) [Example 20] |  | 25 to 50 µM | 
CN(C)[C@H]1CCc2oc3nc(Nc4ccc5nc(N6CCOCC6)sc5c4)ccc3c2C1 [Example 21] |  | 10 to 25 µM | 
CN(C)[C@@H]1CCc2oc3nc(Nc4ccc5nc(N6CCOCC6)sc5c4)ccc3c2C1 [Example 22] |  | 25 to 50 µM | 

Second part, led by results:

EC50 [1] | EC50 [2] | Structure (SMILES) | % Reduction of intracellular Tau aggregation [3]
 | 10 to 25 µM | CN(C)C1CCc2oc3nc(Nc4ccc5nc(N6CCOCC6)oc5c4)ccc3c2C1 (stereo not drawn) [Example 28] | 
< 10 µM |  | CN(C)C1CCc2[nH]c3nc(Nc4ccc5nc(N6CCOCC6)sc5c4)ccc3c2C1 (stereo not drawn) [Example 29] | 
< 10 µM |  | CN(C)C1CCc2[nH]c3nc(Nc4ccc5oc(N6CCOCC6)nc5c4)ccc3c2C1 (stereo not drawn) [Example 30] | 
< 10 µM | 10 to 25 µM | CN(C)C1CCc2oc3nc(Nc4ccc5oc(N6CCOCC6)nc5c4)ccc3c2C1 (stereo not drawn) [Example 31] | 
10 to 25 µM |  | CN(C)C1CCc2[nH]c3nc(Nc4ccc5nc(N6CCOCC6)oc5c4)ccc3c2C1 (stereo not drawn) [Example 32] | 
 | < 10 µM | CN(C)[C@@H]1CCc2oc3nc(Nc4ccc5sc(N6CCOCC6)nc5c4)ccc3c2C1 [Example 33] | 
 | < 10 µM | CN(C)[C@H]1CCc2oc3nc(Nc4ccc5sc(N6CCOCC6)nc5c4)ccc3c2C1 [Example 34] | 
 | < 10 µM | CN(C)[C@H]1CCc2oc3nc(Nc4ccc5oc(N6CCOCC6)nc5c4)ccc3c2C1 [Example 35] | 
 | 10 to 25 µM | CN(C)[C@@H]1CCc2oc3nc(Nc4ccc5oc(N6CCOCC6)nc5c4)ccc3c2C1 [Example 36] | 

Reference: patent publication US12202840B2, “Compounds for the treatment or alleviation of disorders associated with Tau aggregates” (AC Immune SA, priority 2018, dated 2025)
